Assay results as given in PMC10938783, “A novel pan-PI3K inhibitor KTC1101 synergizes with anti-PD-1 therapy by targeting tumor suppression and immune activation” (Molecular Cancer, 2024).

System: B16 cells gene expression
Test: RNA-Seq (DEGs, GSEA, heatmaps) of B16 cells
Settings: for NES / enrichmentScore: KTC 0.2μM
[1] = B16 cells, GSEA gene set HALLMARK_ADIPOGENESIS
[2] = B16 cells, GSEA gene set HALLMARK_ALLOGRAFT_REJECTION
[3] = B16 cells, GSEA gene set HALLMARK_ANDROGEN_RESPONSE
[4] = B16 cells, GSEA gene set HALLMARK_APICAL_JUNCTION
[5] = B16 cells, GSEA gene set HALLMARK_APICAL_SURFACE
[6] = B16 cells, GSEA gene set HALLMARK_APOPTOSIS
[7] = B16 cells, GSEA gene set HALLMARK_BILE_ACID_METABOLISM
[8] = B16 cells, GSEA gene set HALLMARK_CHOLESTEROL_HOMEOSTASIS
[9] = B16 cells, GSEA gene set HALLMARK_COAGULATION
[10] = B16 cells, GSEA gene set HALLMARK_COMPLEMENT
[11] = B16 cells, GSEA gene set HALLMARK_DNA_REPAIR
[12] = B16 cells, GSEA gene set HALLMARK_E2F_TARGETS
[13] = B16 cells, GSEA gene set HALLMARK_EPITHELIAL_MESENCHYMAL_TRANSITION
[14] = B16 cells, GSEA gene set HALLMARK_ESTROGEN_RESPONSE_EARLY
[15] = B16 cells, GSEA gene set HALLMARK_ESTROGEN_RESPONSE_LATE
[16] = B16 cells, GSEA gene set HALLMARK_FATTY_ACID_METABOLISM
[17] = B16 cells, GSEA gene set HALLMARK_G2M_CHECKPOINT
[18] = B16 cells, GSEA gene set HALLMARK_GLYCOLYSIS
[19] = B16 cells, GSEA gene set HALLMARK_HEDGEHOG_SIGNALING
[20] = B16 cells, GSEA gene set HALLMARK_HEME_METABOLISM
[21] = B16 cells, GSEA gene set HALLMARK_HYPOXIA
[22] = B16 cells, GSEA gene set HALLMARK_IL2_STAT5_SIGNALING
[23] = B16 cells, GSEA gene set HALLMARK_IL6_JAK_STAT3_SIGNALING
[24] = B16 cells, GSEA gene set HALLMARK_INFLAMMATORY_RESPONSE
[25] = B16 cells, GSEA gene set HALLMARK_INTERFERON_ALPHA_RESPONSE
[26] = B16 cells, GSEA gene set HALLMARK_INTERFERON_GAMMA_RESPONSE
[27] = B16 cells, GSEA gene set HALLMARK_KRAS_SIGNALING_DN
[28] = B16 cells, GSEA gene set HALLMARK_KRAS_SIGNALING_UP
[29] = B16 cells, GSEA gene set HALLMARK_MITOTIC_SPINDLE
[30] = B16 cells, GSEA gene set HALLMARK_MTORC1_SIGNALING
[31] = B16 cells, GSEA gene set HALLMARK_MYC_TARGETS_V1
[32] = B16 cells, GSEA gene set HALLMARK_MYC_TARGETS_V2
[33] = B16 cells, GSEA gene set HALLMARK_MYOGENESIS
[34] = B16 cells, GSEA gene set HALLMARK_NOTCH_SIGNALING
[35] = B16 cells, GSEA gene set HALLMARK_OXIDATIVE_PHOSPHORYLATION
[36] = B16 cells, GSEA gene set HALLMARK_P53_PATHWAY

With COc1cc(N)cc2c1nc(C(F)F)n2-c1nc(N2CCCOCC2)nc(N2CCOCC2)n1 [KTC1101, 2-(difluoromethyl)-4-methoxy-1-(4-morpholino-6-(1,4-oxazepan-4-yl)-1,3,5-triazin-2-yl)-1H-benzo[d]imidazol-6-amine] the “NES, mmu05152 Tuberculosis” value was -0.8664, the “NES, mmu05164 Influenza A” value was 0.7158 and the “NES, mmu05169 Epstein-Barr virus infection” value was 0.9901. The “enrichmentScore, mmu05152 Tuberculosis” value was -0.1994, the “enrichmentScore, mmu05164 Influenza A” value was 0.2008 and the “enrichmentScore, mmu05169 Epstein-Barr virus infection” value was 0.2613. The “immune pathways TNFα signaling via NF-κB, inflammatory response, chemokine signaling, cytokine-cytokine receptor interaction, IL-2-STAT5 (GSEA)” value (B16 cells, 0.04 and 0.2 μM, 48 h) was “significantly upregulated at both tested concentrations”, the NES [1] was -1.91 and the enrichmentScore [1] was -0.3889. For the same compound, the NES [2] was 1.691, the enrichmentScore [2] was 0.4865 and the NES [3] was 0.8627. The enrichmentScore [3] was 0.2417, the NES [4] was 1.3836 and the enrichmentScore [4] was 0.3738. The NES [5] was -2.057, the enrichmentScore [5] was -0.6354 and the NES [6] was 0.9502. For the same compound, the enrichmentScore [6] was 0.2533, the NES [7] was -0.7889 and the enrichmentScore [7] was -0.209. The NES [8] was -2.882, the enrichmentScore [8] was -0.7203 and the NES [9] was 2.055. The enrichmentScore [9] was 0.594, the NES [10] was 1.839 and the enrichmentScore [10] was 0.5017. The NES [11] was -0.6206, the enrichmentScore [11] was -0.1386 and the NES [12] was -2.092. It also gave an enrichmentScore [12] of -0.4182, an NES [13] of 1.653 and an enrichmentScore [13] of 0.443. The NES [14] was 1.194, the enrichmentScore [14] was 0.32 and the NES [15] was -1.354. It also gave an enrichmentScore [15] of -0.2968, an NES [16] of -1.5293 and an enrichmentScore [16] of -0.3352. The NES [17] was -1.723, the enrichmentScore [17] was -0.3452 and the NES [18] was -3.021. For the same compound, the enrichmentScore [18] was -0.6285, the NES [19] was -1.553 and the enrichmentScore [19] was -0.4866. It also gave an NES [20] of -0.8539, an enrichmentScore [20] of -0.1842 and an NES [21] of -1.667. The enrichmentScore [21] was -0.3411, the NES [22] was 1.6961 and the enrichmentScore [22] was 0.4531. For the same compound, the NES [23] was 1.437, the enrichmentScore [23] was 0.4564 and the NES [24] was 1.614. For the same compound, the enrichmentScore [24] was 0.4471, the NES [25] was -0.8696 and the enrichmentScore [25] was -0.2269. It also gave an NES [26] of 1.08, an enrichmentScore [26] of 0.2921 and an NES [27] of 1.399. The enrichmentScore [27] was 0.4365, the NES [28] was 2.0673 and the enrichmentScore [28] was 0.5585. For the same compound, the NES [29] was -1.3285, the enrichmentScore [29] was -0.2672 and the NES [30] was -3.5229. It also gave an enrichmentScore [30] of -0.6921, an NES [31] of -0.8926 and an enrichmentScore [31] of -0.1781. The NES [32] was -0.5144, the enrichmentScore [32] was -0.1367 and the NES [33] was 1.795. It also gave an enrichmentScore [33] of 0.4818, an NES [34] of 1.2511 and an enrichmentScore [34] of 0.4419. It also gave an NES [35] of -2.275, an enrichmentScore [35] of -0.46 and an NES [36] of -1.372. For the same compound, the enrichmentScore [36] was -0.2855 and the NES (B16 cells, GSEA gene set HALLMARK_PEROXISOME) was -1.588.
